Measurements from patent US20250082674A1, “METHODS OF TREATING COPPER METABOLISM-ASSOCIATED DISEASES OR DISORDERS” (priority 2021, published 2025).

Tests used:
[1] = test system: patients with Wilson disease (WD); assay: Study 301: Clinical Global Impression scales (CGI-I, CGI-S); assay type: in vivo, human
Description: Clinical Global Impression-[…]: The Clinical Global Impression (CGI) rating scales were commonly used measures of symptom severity, treatment response, and the efficacy of treatments in treatment studies of adult and pediatric patients with mental disorders.
The Clinical Global Impression-Severity scale (CGI-S) is a 7-point scale that requires the clinician to rate the severity of the patient's illness at the time of assessment, relative to the clinician's past experience with patients who have the same diagnosis. Considering total clinical experience, a patient was assessed on severity of illness at the time of rating as: 1, normal, not at all ill; 2, borderline ill; 3, mildly ill; 4, moderately ill; 5, markedly ill; 6, severely ill; or 7, extremely ill.
While transformed CGI-I (TCGI-I) assesses how the WD patients condition changed compared to baseline, CGI-I may indicate the overall clinical improvement of the patients in the study compared to baseline for each treatment arm.

[2] = test system: ^64CuCl2 (^64Cu) intestinal absorption and hepatic copper uptake; assay: Example 2: Copper Absorption study, oral 64Cu PET-CT in healthy subjects; assay type: in vivo, human
Description: Blood was collected at several time points to assess plasma copper kinetics. The study was carried out as a randomized, placebo-controlled intervention study. […] The study assessed the previously listed organs and the effect of anti-copper treatment by comparing the mean standard uptake value (SUV) in the organs of interest. […] The dynamic baseline scans and the subsequent static scans were compared across all treatments.

[3] = in vivo
copper = conditions: Study 201, BC-TTM monotherapy, Week 24
[4] = healthy subjects, after 15 hours

Substance: Bis-choline tetrathiomolybdate [BC-TTM]
- CGI-I scores at week 48 versus SoC ([1]; Study 301, FIG. 22): improvements
- CGI-S (1-7, 1 is normal), Change from Baseline at 48 weeks, Mean ([1]; Study 301, Full Analysis Set): −0.5
- CGI-S, Difference at 48 weeks, LSM (SE), BC-TTM vs SoC ([1]; Study 301, Full Analysis Set): −0.2 (0.13)
- T-CGI-I (−3 to 3, −3 is very much improved) at 48 weeks, Mean ([1]; Study 301, Full Analysis Set): −0.7
- T-CGI-I, Difference at 48 weeks, LSM (SE), BC-TTM vs SoC ([1]; Study 301, Full Analysis Set): −0.3 (0.15)
- copper uptake in the liver one hour after oral 64Cu tracer ([2]; healthy subject, FIG. 25): virtually no copper uptake in the liver
- Absorption of orally-administered copper compared to penicillamine, trientine, or placebo ([2]; healthy subjects): significantly reduced
- blood levels of 64Cu ([2]; healthy subjects): reduced
- mean SUV liver / hepatic uptake of labeled copper, comparison between treatments ([2]; healthy subjects, 1 hour and 15 hours after oral 64Cu): significantly lower
- reduction of mean hepatic copper uptake ([2]; healthy subjects, 1 hr scan post treatment, oral 64Cu, 7 days treatment): ~90%
- range of reduction in hepatic copper uptake ([2]; healthy subjects, 13 hour scan): 60%-90%
- mean SUV liver compared with baseline or placebo ([2]; healthy subjects, FIG. 26): markedly reduced
- mean SUV 64Cu Pancreas post treatment ([2]; healthy subjects, after 1 hour): lower than penicllamine, trientine and placebo
- mean SUV 64Cu Urinary bladder post treatment ([2]; healthy subjects, after 1 hour): lower than penicllamine, trientine and placebo
- mean SUV 64Cu Colon post treatment [2, 4]: higher than penicillamine and placebo
- mean SUV 64Cu Gallbladder post treatment [2, 4]: lower than penicllamine, trientine and placebo
- AEs in SOC Investigations [3]: 29.5%
- AEs in SOC Metabolism and nutrition disorders [3]: 11.5%
- AEs in SOC Skin and subcutaneous tissue disorders [3]: 13.1%
- Affective disorder, E events [3]: 0
- Affective disorder, N participants [3]: 0
- Alanine aminotransferase increased, E events [3]: 14
- Alanine aminotransferase increased, N participants [3]: 12
- Alanine aminotransferase increased, participants (%) [3]: 19.7%
- Anxiety, E events [3]: 1
- Anxiety, N participants [3]: 1
- Anxiety, participants (%) [3]: 1.6%
- Aspartate aminotransferase increased, E events [3]: 4
- Aspartate aminotransferase increased, N participants [3]: 4
- Aspartate aminotransferase increased, participants (%) [3]: 6.6%
- Attention deficit hyperactivity disorder, E events [3]: 0
- Attention deficit hyperactivity disorder, N participants [3]: 0
- Blood and lymphatic system disorders, E events [3]: 18
- Blood and lymphatic system disorders, N participants [3]: 7
- Blood and lymphatic system disorders, participants (%) [3]: 11.5%
- Cardiac disorders, E events [3]: 5
- Cardiac disorders, N participants [3]: 3
- Cardiac disorders, participants (%) [3]: 4.9%
- Congenital, familial, and genetic disorders, E events [3]: 0
- Congenital, familial, and genetic disorders, N participants [3]: 0
- Dyslipidemia, E events [3]: 1
- Dyslipidemia, N participants [3]: 1
- Dyslipidemia, participants (%) [3]: 1.6%
- Ear and labyrinth disorders, E events [3]: 1
- Ear and labyrinth disorders, N participants [3]: 1
- Ear and labyrinth disorders, participants (%) [3]: 1.6%
- Eczema, E events [3]: 1
- Eczema, N participants [3]: 1
- Eczema, participants (%) [3]: 1.6%
- Eye disorders, E events [3]: 0
- Eye disorders, N participants [3]: 0
- Fatigue, E events [3]: 5
- Fatigue, N participants [3]: 5
- Fatigue, participants (%) [3]: 8.2%
- Gamma-glutamyltransferase increased, E events [3]: 3
- Gamma-glutamyltransferase increased, N participants [3]: 3
- Gamma-glutamyltransferase increased, participants (%) [3]: 4.9%
- Gastrointestinal disorders, E events [3]: 30
- Gastrointestinal disorders, N participants [3]: 18
- Gastrointestinal disorders, participants (%) [3]: 29.5%
- Hand dermatitis, E events [3]: 1
- Hand dermatitis, N participants [3]: 1
- Hand dermatitis, participants (%) [3]: 1.6%
- Hepatic enzyme increased, E events [3]: 3
- Hepatic enzyme increased, N participants [3]: 3
- Hepatic enzyme increased, participants (%) [3]: 4.9%
- Hepatobiliary disorders, E events [3]: 3
- Hepatobiliary disorders, N participants [3]: 2
- Hepatobiliary disorders, participants (%) [3]: 3.3%
- Hyperlipidaemia, E events [3]: 1
- Hyperlipidaemia, N participants [3]: 1
- Hyperlipidaemia, participants (%) [3]: 1.6%
- Hypertriglyceridaemia, E events [3]: 3
- Hypertriglyceridaemia, N participants [3]: 1
- Hypertriglyceridaemia, participants (%) [3]: 1.6%
- Infections and infestations, E events [3]: 23
- Infections and infestations, N participants [3]: 17
- Infections and infestations, participants (%) [3]: 27.9%
- Injury, poisoning and procedural complications, E events [3]: 13
- Injury, poisoning and procedural complications, N participants [3]: 7
- Injury, poisoning and procedural complications, participants (%) [3]: 11.5%
- Investigations, E events [3]: 29
- Investigations, N participants [3]: 18
- Investigations, participants (%) [3]: 29.5%
- Metabolism and nutrition disorders, E events [3]: 10
- Metabolism and nutrition disorders, N participants [3]: 7
- Metabolism and nutrition disorders, participants (%) [3]: 11.5%
- Neoplasms benign, malignant, and unspecified (incl cysts and polyps), E events [3]: 1
- Neoplasms benign, malignant, and unspecified (incl cysts and polyps), N participants [3]: 1
- Neoplasms benign, malignant, and unspecified (incl cysts and polyps), participants (%) [3]: 1.6%
- Nervous system disorders, E events [3]: 12
- Nervous system disorders, N participants [3]: 11
- Nervous system disorders, participants (%) [3]: 18.0%
- Neutrophil count decreased, E events [3]: 1
- Neutrophil count decreased, N participants [3]: 1
- Neutrophil count decreased, participants (%) [3]: 1.6%
- Post-traumatic stress disorder, E events [3]: 1
- Post-traumatic stress disorder, N participants [3]: 1
- Post-traumatic stress disorder, participants (%) [3]: 1.6%
- Product issues, E events [3]: 0
- Product issues, N participants [3]: 0
- Pruritus, E events [3]: 2
- Pruritus, N participants [3]: 2
- Pruritus, participants (%) [3]: 3.3%
- Psychiatric disorders, E events [3]: 3
- Psychiatric disorders, N participants [3]: 3
- Psychiatric disorders, participants (%) [3]: 4.9%
- Pyrexia, E events [3]: 1
- Pyrexia, N participants [3]: 1
- Pyrexia, participants (%) [3]: 1.6%
- Rash pruritic, E events [3]: 1
- Rash pruritic, N participants [3]: 1
- Rash pruritic, participants (%) [3]: 1.6%
- Rash, E events [3]: 5
- Rash, N participants [3]: 1
- Rash, participants (%) [3]: 1.6%
- Renal and urinary disorders, E events [3]: 2
- Renal and urinary disorders, N participants [3]: 1
- Renal and urinary disorders, participants (%) [3]: 1.6%
- Reproductive system and breast disorders, E events [3]: 0
- Reproductive system and breast disorders, N participants [3]: 0
- Respiratory, thoracic, and mediastinal disorders, E events [3]: 4
- Respiratory, thoracic, and mediastinal disorders, N participants [3]: 3
- Respiratory, thoracic, and mediastinal disorders, participants (%) [3]: 4.9%
- Restlessness, E events [3]: 0
- Restlessness, N participants [3]: 0
- Skin and subcutaneous tissue disorders, E events [3]: 15
- Skin and subcutaneous tissue disorders, N participants [3]: 8
- Skin and subcutaneous tissue disorders, participants (%) [3]: 13.1%
- Sleep disorder, E events [3]: 1
- Sleep disorder, N participants [3]: 1
- Sleep disorder, participants (%) [3]: 1.6%
- Vascular disorders, E events [3]: 5
- Vascular disorders, N participants [3]: 3
- Vascular disorders, participants (%) [3]: 4.9%
- imbalances in neurologic and psychiatric events after switch from SoC to BC-TTM [3]: not observed
- reduction of mean serum cNCCcorrected compared with baseline (copper): 72%
